Measured values published in article PMC5218480 (PLoS ONE, 2017).

Test system: MV-4-11 cells
Assay: Gene expression microarray analysis (Affymetrix PrimeView) and GSEA
Format: cell-based, human
Parameters: RFU PODN (11730768_x_at) / Fold change /veh PODN (11730768_x_at) / RFU LINC00158 (11744669_a_at) / Fold change /veh LINC00158 (11744669_a_at) / RFU DUSP10 (11751237_a_at) / Fold change /veh DUSP10 (11751237_a_at) / RFU ID3 (11757404_x_at) / Fold change /veh ID3 (11757404_x_at) / RFU PLEKHG5 (11737974_s_at) / Fold change /veh PLEKHG5 (11737974_s_at) / RFU LRRC4B (11730491_at) / Fold change /veh LRRC4B (11730491_at) / RFU GIMAP4 (11747438_a_at) / Fold change /veh GIMAP4 (11747438_a_at) / RFU KRT8 (11758183_x_at) / Fold change /veh KRT8 (11758183_x_at) / RFU CNN1 (11734310_a_at) / Fold change /veh CNN1 (11734310_a_at) / RFU VPS37D (11726825_at) / Fold change /veh VPS37D (11726825_at) / RFU C10orf10 (11716522_x_at) / Fold change /veh C10orf10 (11716522_x_at) / RFU KIR2DL2 /// KIR2DL4 /// KIR2DL5A /// KIR2DL5B /// KIR2DS1 /// KIR2DS2 /// KIR2DS3 /// KIR2DS4 /// KIR3DL3 /// KIR3DL3 /// KIR3DS1 (11738374_at) / Fold change /veh KIR2DL2 /// KIR2DL4 /// KIR2DL5A /// KIR2DL5B /// KIR2DS1 /// KIR2DS2 /// KIR2DS3 /// KIR2DS4 /// KIR3DL3 /// KIR3DL3 /// KIR3DS1 (11738374_at) / RFU C1QL1 (11718748_at) / Fold change /veh C1QL1 (11718748_at) / RFU TMPRSS4 (11747572_a_at) / Fold change /veh TMPRSS4 (11747572_a_at) / RFU HAMP (11756126_x_at) / Fold change /veh HAMP (11756126_x_at) / RFU RNFT2 (11725882_a_at) / Fold change /veh RNFT2 (11725882_a_at) / RFU NR4A2 (11747474_a_at) / Fold change /veh NR4A2 (11747474_a_at) / RFU ABCC12 (11746883_a_at) / Fold change /veh ABCC12 (11746883_a_at) / RFU TMEM136 (11760407_x_at) / Fold change /veh TMEM136 (11760407_x_at) / RFU CLDN22 /// WWC2 (11732394_at) / Fold change /veh CLDN22 /// WWC2 (11732394_at) / RFU HLA-DPB1 (11760878_x_at) / Fold change /veh HLA-DPB1 (11760878_x_at) / RFU SPINT1 (11716480_a_at) / Fold change /veh SPINT1 (11716480_a_at) / RFU GAP43 (11754022_s_at) / Fold change /veh GAP43 (11754022_s_at) / RFU A4GNT (11735810_at) / Fold change /veh A4GNT (11735810_at) / RFU PRB3 (11715151_x_at) / Fold change /veh PRB3 (11715151_x_at) / RFU TUBB4B (11761932_at) / Fold change /veh TUBB4B (11761932_at) / RFU CAPN14 (11732068_a_at) / Fold change /veh CAPN14 (11732068_a_at) / RFU TMCC2 (11721928_a_at) / Fold change /veh TMCC2 (11721928_a_at) / RFU IRGQ (11745062_a_at) / Fold change /veh IRGQ (11745062_a_at) / RFU FAM174B (11720279_a_at) / Fold change /veh FAM174B (11720279_a_at) / RFU TMPRSS4 (11748680_a_at) / Fold change /veh TMPRSS4 (11748680_a_at) / RFU FAM212B (11763350_a_at) / Fold change /veh FAM212B (11763350_a_at) / RFU PLEKHG5 (11743358_a_at) / Fold change /veh PLEKHG5 (11743358_a_at) / RFU ZSCAN30 (11745921_a_at) / Fold change /veh ZSCAN30 (11745921_a_at) / RFU CMKLR1 (11741424_a_at) / Fold change /veh CMKLR1 (11741424_a_at) / RFU LOC101060620 /// MAPK8IP1 (11723275_at) / Fold change /veh LOC101060620 /// MAPK8IP1 (11723275_at) / RFU SPTSSB (11747773_x_at) / Fold change /veh SPTSSB (11747773_x_at) / RFU PRSS12 (11739890_at) / Fold change /veh PRSS12 (11739890_at) / RFU BIN1 (11741810_x_at) / Fold change /veh BIN1 (11741810_x_at) / RFU WNT11 (11732464_a_at) / Fold change /veh WNT11 (11732464_a_at) / RFU C10orf10 (11716521_a_at) / Fold change /veh C10orf10 (11716521_a_at) / RFU C5orf56 (11738089_at) / Fold change /veh C5orf56 (11738089_at) / RFU CYB561 (11721691_x_at) / Fold change /veh CYB561 (11721691_x_at) / RFU ANKRD19P (11752326_a_at) / Fold change /veh ANKRD19P (11752326_a_at) / RFU OR2T12 /// OR2T33 /// OR2T8 (11738714_s_at) / Fold change /veh OR2T12 /// OR2T33 /// OR2T8 (11738714_s_at) / RFU VCAN (11748164_a_at) / Fold change /veh VCAN (11748164_a_at) / RFU JSRP1 (11732532_at) / Fold change /veh JSRP1 (11732532_at) / RFU KRTAP10-11 (11738290_x_at) / Fold change /veh KRTAP10-11 (11738290_x_at) / RFU MYO3A (11730013_a_at) / Fold change /veh MYO3A (11730013_a_at) / RFU EBF3 (11725865_a_at) / Fold change /veh EBF3 (11725865_a_at) / RFU CAMK2N1 (11719241_x_at) / Fold change /veh CAMK2N1 (11719241_x_at) / RFU C5orf56 (11738088_a_at) / Fold change /veh C5orf56 (11738088_a_at) / RFU OLFML3 (11715873_a_at) / Fold change /veh OLFML3 (11715873_a_at) / RFU LOC100653217 /// NTM (11731650_a_at) / Fold change /veh LOC100653217 /// NTM (11731650_a_at) / RFU MAPK11 (11762145_a_at) / Fold change /veh MAPK11 (11762145_a_at) / RFU FIZ1 (11724087_x_at) / Fold change /veh FIZ1 (11724087_x_at) / RFU OASL (11726364_x_at) / Fold change /veh OASL (11726364_x_at) / RFU SOX15 (11748057_x_at) / Fold change /veh SOX15 (11748057_x_at) / RFU CD79A (11719716_a_at) / Fold change /veh CD79A (11719716_a_at) / RFU HIST1H1D (11736915_at) / Fold change /veh HIST1H1D (11736915_at) / RFU CASKIN2 (11723855_a_at) / Fold change /veh CASKIN2 (11723855_a_at) / RFU LOC730098 (11760151_x_at) / Fold change /veh LOC730098 (11760151_x_at) / RFU OR4N2 (11742367_at) / Fold change /veh OR4N2 (11742367_at) / RFU PRRT2 (11749266_a_at) / Fold change /veh PRRT2 (11749266_a_at) / RFU SNX32 (11753110_a_at) / Fold change /veh SNX32 (11753110_a_at) / RFU CDHR5 (11726645_a_at) / Fold change /veh CDHR5 (11726645_a_at) / RFU RCAN1 (11760418_a_at) / Fold change /veh RCAN1 (11760418_a_at) / RFU FAM167A (11723789_a_at) / Fold change /veh FAM167A (11723789_a_at) / RFU FAM26E (11764081_at) / Fold change /veh FAM26E (11764081_at) / RFU ISYNA1 (11749810_s_at) / Fold change /veh ISYNA1 (11749810_s_at) / RFU ACY1 (11761880_at) / Fold change /veh ACY1 (11761880_at) / RFU 11764098_at / Fold change /veh 11764098_at / RFU SAMD14 (11745864_x_at) / Fold change /veh SAMD14 (11745864_x_at) / RFU NPB (11741838_a_at) / Fold change /veh NPB (11741838_a_at) / RFU TMPRSS6 (11731388_a_at) / Fold change /veh TMPRSS6 (11731388_a_at) / RFU KRTAP10-2 (11738614_at) / Fold change /veh KRTAP10-2 (11738614_at) / RFU ARHGAP8 /// PRR5-ARHGAP8 (11727945_x_at) / Fold change /veh ARHGAP8 /// PRR5-ARHGAP8 (11727945_x_at) / RFU KRTAP5-7 /// NADSYN1 (11734609_at) / Fold change /veh KRTAP5-7 /// NADSYN1 (11734609_at) / RFU RASL12 (11751679_a_at) / Fold change /veh RASL12 (11751679_a_at) / RFU CDKN2B (11736163_a_at) / Fold change /veh CDKN2B (11736163_a_at) / RFU PRF1 (11729649_at) / Fold change /veh PRF1 (11729649_at) / RFU, ZNF638 /// ZNF638-IT1 / Fold change vs veh, ZNF638 /// ZNF638-IT1 / RFU, PANK3 / Fold change vs veh, PANK3 / RFU, SH3YL1 / Fold change vs veh, SH3YL1 / RFU, ZEB2 / Fold change vs veh, ZEB2 / RFU, NRIP1 / Fold change vs veh, NRIP1 / RFU, PTTG1IP / Fold change vs veh, PTTG1IP / RFU, CAPN2 / Fold change vs veh, CAPN2 / RFU, MED14 / Fold change vs veh, MED14 / RFU, SNORA58 / Fold change vs veh, SNORA58 / RFU, C1orf63 / Fold change vs veh, C1orf63 / RFU, LRRFIP1 / Fold change vs veh, LRRFIP1 / RFU, NDUFAF7 / Fold change vs veh, NDUFAF7 / RFU, SLC12A2 / Fold change vs veh, SLC12A2 / RFU, IBTK / Fold change vs veh, IBTK / RFU, ESF1 / Fold change vs veh, ESF1 / Fold change vs veh, TMEM50B / RFU, TAOK1 / Fold change vs veh, TAOK1 / RFU, ACBD3 / Fold change vs veh, ACBD3 / RFU, TMA16 / Fold change vs veh, TMA16 / RFU, RWDD3 / Fold change vs veh, RWDD3 / RFU, BCAT1 / Fold change vs veh, BCAT1 / RFU, EDEM3 / Fold change vs veh, EDEM3 / RFU, TMEM33 / Fold change vs veh, TMEM33 / RFU, WDR75 / Fold change vs veh, WDR75 / RFU, AHCTF1 / Fold change vs veh, AHCTF1 / RFU, TFRC / Fold change vs veh, TFRC / RFU, ZDHHC17 / Fold change vs veh, ZDHHC17 / RFU, NOM1 / Fold change vs veh, NOM1 / RFU, ARL8B / Fold change vs veh, ARL8B / RFU, ZBTB11 / Fold change vs veh, ZBTB11 / RFU, TAMM41 / Fold change vs veh, TAMM41 / RFU, KIAA1704 /// LOC100996395 / Fold change vs veh, KIAA1704 /// LOC100996395 / RFU, ING1 / Fold change vs veh, ING1 / RFU, TRMT61B / Fold change vs veh, TRMT61B / RFU, FUBP3 / Fold change vs veh, FUBP3 / RFU, TP53 / Fold change vs veh, TP53 / RFU, TNKS2 / Fold change vs veh, TNKS2 / RFU, ZFP14 / Fold change vs veh, ZFP14 / RFU, ACTR2 / Fold change vs veh, ACTR2 / RFU, PPP3R1 / Fold change vs veh, PPP3R1 / RFU, PIK3R1 / Fold change vs veh, PIK3R1 / RFU, HNRNPA1 / Fold change vs veh, HNRNPA1 / RFU, RNF170 / Fold change vs veh, RNF170 / RFU, ZNF28 / Fold change vs veh, ZNF28 / RFU, RNGTT / Fold change vs veh, RNGTT / RFU, OGT / Fold change vs veh, OGT / RFU, BRD1 / Fold change vs veh, BRD1 / RFU, MARS / Fold change vs veh, MARS / RFU, ZNF655 / Fold change vs veh, ZNF655 / RFU, FAHD1 / Fold change vs veh, FAHD1 / RFU, BDP1 / Fold change vs veh, BDP1 / RFU, LRRCC1 / Fold change vs veh, LRRCC1 / RFU, ARID1A / Fold change vs veh, ARID1A / RFU, ZNF146 / Fold change vs veh, ZNF146 / RFU, ZNF330 / Fold change vs veh, ZNF330 / RFU, GPN3 / Fold change vs veh, GPN3 / RFU, C9orf123 / Fold change vs veh, C9orf123 / RFU, N4BP2L2 / Fold change vs veh, N4BP2L2 / RFU, ARFIP1 / Fold change vs veh, ARFIP1 / RFU, FAM179B / Fold change vs veh, FAM179B / RFU, BCL10 / Fold change vs veh, BCL10 / RFU, UHRF1BP1L / Fold change vs veh, UHRF1BP1L / RFU, BET1 / Fold change vs veh, BET1 / RFU, CNOT2 / Fold change vs veh, CNOT2 / RFU, ZNF268 / Fold change vs veh, ZNF268 / Fold change vs veh, ZNF507 / RFU, DGCR2 / Fold change vs veh, DGCR2 / RFU, WDSUB1 / Fold change vs veh, WDSUB1 / Fold change vs veh, HSP90B1 /// MIR3652 / RFU, ADSS / Fold change vs veh, ADSS / RFU, GK / Fold change vs veh, GK / RFU, ZNF148 / Fold change vs veh, ZNF148 / RFU, TAF9 / Fold change vs veh, TAF9 / RFU, SLC1A5 / Fold change vs veh, SLC1A5 / RFU, SLMO2 / Fold change vs veh, SLMO2 / RFU, ABCC4 / Fold change vs veh, ABCC4 / RFU, LOC101060439 /// RAP1B / Fold change vs veh, LOC101060439 /// RAP1B / RFU, RFX7 / Fold change vs veh, RFX7 / RFU, GTPBP10 / Fold change vs veh, GTPBP10 / RFU, CNEP1R1 / Fold change vs veh, CNEP1R1 / RFU, BIVM-ERCC5 /// ERCC5 / Fold change vs veh, BIVM-ERCC5 /// ERCC5 / RFU, ILF3 / Fold change vs veh, ILF3 / RFU 11762660_at / Fold change /veh 11762660_at / RFU VCAN (11757783_s_at) / Fold change /veh VCAN (11757783_s_at) / RFU DDX43 (11728927_at) / Fold change /veh DDX43 (11728927_at) / RFU KRT8 (11758188_x_at) / Fold change /veh KRT8 (11758188_x_at) / RFU NKD1 (11759106_at) / Fold change /veh NKD1 (11759106_at) / RFU SRD5A1 (11742802_a_at) / Fold change /veh SRD5A1 (11742802_a_at) / RFU TPSAB1 /// TPSB2 (11721975_s_at) / Fold change /veh TPSAB1 /// TPSB2 (11721975_s_at) / RFU GSTM3 (11746129_a_at) / Fold change /veh GSTM3 (11746129_a_at) / RFU IL23R (11737362_x_at) / Fold change /veh IL23R (11737362_x_at) / RFU TMEM51 (11727254_a_at) / Fold change /veh TMEM51 (11727254_a_at) / RFU PIWIL2 (11732686_x_at) / Fold change /veh PIWIL2 (11732686_x_at) / RFU ORM1 (11744905_x_at) / Fold change /veh ORM1 (11744905_x_at) / RFU CCDC152 (11743942_at) / Fold change /veh CCDC152 (11743942_at) / RFU ECM1 (11717891_a_at) / Fold change /veh ECM1 (11717891_a_at) / RFU IL23R (11748794_a_at) / Fold change /veh IL23R (11748794_a_at) / RFU TNFAIP8L3 (11732012_x_at) / Fold change /veh TNFAIP8L3 (11732012_x_at) / RFU MBOAT4 (11741988_at) / Fold change /veh MBOAT4 (11741988_at) / RFU 11764193_at / Fold change /veh 11764193_at / RFU TMEM53 (11763286_at) / Fold change /veh TMEM53 (11763286_at) / RFU MAGEB2 (11727129_at) / Fold change /veh MAGEB2 (11727129_at) / RFU TMEM200A (11744735_a_at) / Fold change /veh TMEM200A (11744735_a_at) / RFU CCDC152 (11751479_a_at) / Fold change /veh CCDC152 (11751479_a_at) / RFU FAM211A (11726209_a_at) / Fold change /veh FAM211A (11726209_a_at) / RFU RGS16 (11746705_a_at) / Fold change /veh RGS16 (11746705_a_at) / RFU VCAN (11755009_s_at) / Fold change /veh VCAN (11755009_s_at) / RFU RHOB (11743442_s_at) / Fold change /veh RHOB (11743442_s_at) / RFU RGS16 (11720943_a_at) / Fold change /veh RGS16 (11720943_a_at) / RFU RGS16 (11720944_at) / Fold change /veh RGS16 (11720944_at) / RFU, VPS4B / Fold change vs veh, VPS4B / RFU, CREB1 / Fold change vs veh, CREB1 / RFU, DNAJC13 / Fold change vs veh, DNAJC13 / RFU, GNAQ / Fold change vs veh, GNAQ / RFU, CDK5R1 / Fold change vs veh, CDK5R1 / RFU, ZRANB3 / Fold change vs veh, ZRANB3 / RFU, CUL4A / Fold change vs veh, CUL4A / RFU, CCNY / Fold change vs veh, CCNY / RFU, UFL1 / Fold change vs veh, UFL1 / RFU, COG3 / Fold change vs veh, COG3 / RFU, DIAPH2 / Fold change vs veh, DIAPH2 / RFU, SKA2 / Fold change vs veh, SKA2 / RFU, AFF3 / Fold change vs veh, AFF3 / RFU, LMF1 / Fold change vs veh, LMF1 / RFU, IPO11 / Fold change vs veh, IPO11 / RFU, DFFB / Fold change vs veh, DFFB / RFU, FOXP1 / Fold change vs veh, FOXP1 / RFU, CARD8 / Fold change vs veh, CARD8 / RFU, STRN3 / Fold change vs veh, STRN3 / RFU, ADK / Fold change vs veh, ADK / RFU, RASSF2 / Fold change vs veh, RASSF2 / RFU, WIPF1 / Fold change vs veh, WIPF1 / RFU, LARP1B / Fold change vs veh, LARP1B / RFU, RASA1 / Fold change vs veh, RASA1 / RFU, RB1 / Fold change vs veh, RB1 / RFU, PPFIA1 / Fold change vs veh, PPFIA1 / RFU, MAT2A / Fold change vs veh, MAT2A / RFU, CCT5 / Fold change vs veh, CCT5 / RFU, WDR92 / Fold change vs veh, WDR92 / RFU, CUX1 / Fold change vs veh, CUX1 / RFU, TTC7A / Fold change vs veh, TTC7A / RFU, TMEM135 / Fold change vs veh, TMEM135 / RFU, DEPTOR / Fold change vs veh, DEPTOR / RFU, CPM / Fold change vs veh, CPM / RFU, DNAJB6 / Fold change vs veh, DNAJB6 / RFU, CACNA2D3 / Fold change vs veh, CACNA2D3 / RFU, DTX4 / Fold change vs veh, DTX4 / RFU, TFCP2 / Fold change vs veh, TFCP2 / RFU, GMCL1 /// GMCL1P1 / Fold change vs veh, GMCL1 /// GMCL1P1 / RFU, AEBP2 / Fold change vs veh, AEBP2 / RFU, SNHG1 /// SNORD22 /// SNORD25 /// SNORD26 /// SNORD27 /// SNORD28 /// SNORD29 /// SNORD31 / Fold change vs veh, SNHG1 /// SNORD22 /// SNORD25 /// SNORD26 /// SNORD27 /// SNORD28 /// SNORD29 /// SNORD31 / Fold change (Aza/veh), C12orf56 (ProbeSet 11735607_a_at) / Fold change (ACY-1035/veh), C12orf56 (ProbeSet 11735607_a_at) / Fold change (Aza/veh), FGFR1OP (ProbeSet 11751329_s_at) / Fold change (ACY-1035/veh), FGFR1OP (ProbeSet 11751329_s_at) / Fold change (Aza/veh), VPS36 (ProbeSet 11739960_a_at) / Fold change (ACY-1035/veh), VPS36 (ProbeSet 11739960_a_at) / RFU SYPL1 (11715823_x_at) / Fold change /veh SYPL1 (11715823_x_at) / RFU IGFBP7 (11715501_s_at) / Fold change /veh IGFBP7 (11715501_s_at) / RFU REEP3 (11722064_at) / Fold change /veh REEP3 (11722064_at) / RFU IGLL1 (11728026_x_at) / Fold change /veh IGLL1 (11728026_x_at): dose or concentration left out as unconfirmed
Details: ProbeSet 11753623_s_at; LIST D

## Nc1ncn([C@@H]2O[C@H](CO)[C@@H](O)[C@H]2O)c(=O)n1 [azacitidine]
  Fold change vs veh, LOC101060439 /// RAP1B: 0.77
